Measured values as given in ChEMBL document CHEMBL1201861, “Genomics of Drug Sensitity in Cancer screening data, Wellcome Trust Sanger Institute”.

Key:
Experiment in all cases: cells
Conditions in all cases: Homo sapiens
UMUC3 = type: functional, cell-based;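 also: growth inhibition of human UM-UC-3 cells, read out with a cell viability assay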
Description: SANGER: Inhibition of human UM-UC-3 cell growth in a cell viability assay.

RD = type: functional, cell-based
Description: SANGER: Inhibition of human RD cell growth in a cell viability assay.

SW1710 = type: functional, cell-based;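 also: growth inhibition of SW1710 cells, determined with a cell viability assay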
Description: SANGER: Inhibition of human SW1710 cell growth in a cell viability assay.

LK-2 = type: functional, cell-based;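 also: growth inhibition of LK-2 cells, read out with a viability assay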
Description: SANGER: Inhibition of human LK-2 cell growth in a cell viability assay.

NCI-H345 = type: functional, cell-based;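 also: growth inhibition of NCI-H345 cells measured with a cell viability assay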
Description: SANGER: Inhibition of human NCI-H345 cell growth in a cell viability assay.

RPMI-7951 = type: functional, cell-based
Description: SANGER: Inhibition of human RPMI-7951 cell growth in a cell viability assay.

LU-165 = type: functional, cell-based
Description: SANGER: Inhibition of human LU-165 cell growth in a cell viability assay.

NCI-H2405 = type: functional, cell-based;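 also: growth inhibition of the human cell line, read out with a cell viability assay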
Description: SANGER: Inhibition of human NCI-H2405 cell growth in a cell viability assay.

JEG-3 = type: functional, cell-based;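 also: growth inhibition of human JEG-3 cells, read out with a cell viability assay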
Description: SANGER: Inhibition of human JEG-3 cell growth in a cell viability assay.

ABC-1 = type: functional, cell-based;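 also: growth inhibition of human ABC-1 cells, read out by a cell viability assay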
Description: SANGER: Inhibition of human ABC-1 cell growth in a cell viability assay.

NCI-H292 = type: functional, cell-based;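 also: growth inhibition of NCI-H292 cells, read out with a cell viability assay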
Description: SANGER: Inhibition of human NCI-H292 cell growth in a cell viability assay.

EFO-21 = type: functional, cell-based;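 also: growth inhibition of EFO-21 cells measured with a viability assay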
Description: SANGER: Inhibition of human EFO-21 cell growth in a cell viability assay.

TGW = type: functional, cell-based;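 also: growth inhibition of human TGW cells, read out with a cell viability assay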
Description: SANGER: Inhibition of human TGW cell growth in a cell viability assay.

COLO-678 = type: functional, cell-based
Description: SANGER: Inhibition of human COLO-678 cell growth in a cell viability assay.

GMS-10 = type: functional, cell-based;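 also: growth inhibition of GMS-10 cells, read out as cell viability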
Description: SANGER: Inhibition of human GMS-10 cell growth in a cell viability assay.

SK-HEP1 = type: functional, cell-based, SK-HEP-1;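 also: cell viability readout used to quantify reduction in proliferation of human SK-HEP-1 cells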
Description: SANGER: Inhibition of human SK-HEP-1 cell growth in a cell viability assay.

THP-1 = type: functional, cell-based;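 also: growth inhibition of THP-1 cells, read out via a cell viability assay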
Description: SANGER: Inhibition of human THP-1 cell growth in a cell viability assay.

P31-FUJ = type: functional, cell-based;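 also: growth inhibition of P31-FUJ cells, read out with a viability assay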
Description: SANGER: Inhibition of human P31-FUJ cell growth in a cell viability assay.

SIG-M5 = type: functional, cell-based;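 also: cell viability assay read-out, measuring how strongly growth of cultured human SIG-M5 cells is inhibited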
Description: SANGER: Inhibition of human SIG-M5 cell growth in a cell viability assay.

SNU-C1 = type: functional, cell-based;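 also: growth inhibition of SNU-C1 human cells, read out by a cell viability assay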
Description: SANGER: Inhibition of human SNU-C1 cell growth in a cell viability assay.

DMS-153 = type: functional, cell-based
Description: SANGER: Inhibition of human DMS-153 cell growth in a cell viability assay.

J82 = type: functional, cell-based;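 also: growth inhibition of J82 cells, read out with a cell viability assay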
Description: SANGER: Inhibition of human J82 cell growth in a cell viability assay.

NCI-H2171 = type: functional, cell-based;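 also: growth inhibition of human NCI-H2171 cells, read out by a cell viability assay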
Description: SANGER: Inhibition of human NCI-H2171 cell growth in a cell viability assay.

U-251 = type: functional, cell-based;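 also: growth inhibition of human U-251 cells, read out through a cell viability assay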
Description: SANGER: Inhibition of human U251 cell growth in a cell viability assay.

CAL-72 = type: functional, cell-based;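 also: cell viability assay measuring inhibition of proliferation in the CAL-72 cell line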
Description: SANGER: Inhibition of human CAL-72 cell growth in a cell viability assay.

SW1417 = type: functional, cell-based;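 also: growth inhibition of human SW1417 cells, read out with a cell viability assay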
Description: SANGER: Inhibition of human SW1417 cell growth in a cell viability assay.

NCI-H1963 = type: functional, cell-based;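 also: cell growth inhibition of the human line, determined with a cell viability assay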
Description: SANGER: Inhibition of human NCI-H1963 cell growth in a cell viability assay.

KYSE-410 = type: functional, cell-based;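 also: growth inhibition of KYSE-410 cells, measured through a cell viability readout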
Description: SANGER: Inhibition of human KYSE-410 cell growth in a cell viability assay.

K052 = type: functional, cell-based;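 also: Read-out from a cell viability assay, IC50 reflecting suppression of K052 cell growth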
Description: SANGER: Inhibition of human K052 cell growth in a cell viability assay.

OE19 = type: functional, cell-based;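 also: growth inhibition of OE19 cells, measured through a cell viability read-out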
Description: SANGER: Inhibition of human OE19 cell growth in a cell viability assay.

ARH-77 = type: functional, cell-based;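 also: growth inhibition of ARH-77 cells, read out by a cell viability assay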
Description: SANGER: Inhibition of human ARH-77 cell growth in a cell viability assay.

NCI-H2141 = type: functional, cell-based;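 also: growth inhibition of human NCI-H2141 cells, read out with a cell viability assay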
Description: SANGER: Inhibition of human NCI-H2141 cell growth in a cell viability assay.

HGC-27 = type: functional, cell-based;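 also: growth inhibition of human HGC-27 cells, read out in a cell viability assay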
Description: SANGER: Inhibition of human HGC-27 cell growth in a cell viability assay.

NCI-H727 = type: functional, cell-based;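 also: growth inhibition of human NCI-H727 cells, read out with a cell viability assay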
Description: SANGER: Inhibition of human NCI-H727 cell growth in a cell viability assay.

RCM-1 = type: functional, cell-based;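 also: growth inhibition of the RCM-1 line, determined with a cell viability readout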
Description: SANGER: Inhibition of human RCM-1 cell growth in a cell viability assay.

CPC-N = type: functional, cell-based;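 also: growth inhibition of CPC-N cells, with a cell viability assay as the readout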
Description: SANGER: Inhibition of human CPC-N cell growth in a cell viability assay.

CAL-39 = type: functional, cell-based;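 also: cell viability assay measuring growth inhibition of CAL-39 cells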
Description: SANGER: Inhibition of human CAL-39 cell growth in a cell viability assay.

HT-29 = type: functional, cell-based;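 also: growth inhibition of human HT-29 cells, read out by a cell viability assay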
Description: SANGER: Inhibition of human HT-29 cell growth in a cell viability assay.

NCI-N87 = type: functional, cell-based;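 also: growth inhibition of human NCI-N87 cells, read out with a cell viability assay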
Description: SANGER: Inhibition of human NCI-N87 cell growth in a cell viability assay.

SAS = type: functional, cell-based;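 also: growth inhibition of SAS cells, read out with a cell viability assay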
Description: SANGER: Inhibition of human SAS cell growth in a cell viability assay.

GAMG = type: functional, cell-based;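 also: cell growth inhibition measured by a viability assay in the GAMG human cell line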
Description: SANGER: Inhibition of human GAMG cell growth in a cell viability assay.

MKN-1 = type: functional, cell-based;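 also: growth inhibition of human MKN1 cells, read out by a cell viability measurement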
Description: SANGER: Inhibition of human MKN1 cell growth in a cell viability assay.

KYSE-510 = type: functional, cell-based;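 also: cell viability readout used to measure how strongly growth of the cell line is suppressed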
Description: SANGER: Inhibition of human KYSE-510 cell growth in a cell viability assay.

HuP-T3 = type: functional, cell-based;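 also: HuP-T3 cell growth inhibition, read out with a cell viability assay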
Description: SANGER: Inhibition of human HuP-T3 cell growth in a cell viability assay.

C-33-A = type: functional, cell-based;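 also: cell viability assay measuring growth inhibition of C-33-A cells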
Description: SANGER: Inhibition of human C-33-A cell growth in a cell viability assay.

SNU-449 = type: functional, cell-based
Description: SANGER: Inhibition of human SNU-449 cell growth in a cell viability assay.

NCI-H1792 = type: functional, cell-based;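 also: growth inhibition of human NCI-H1792 cells, read out as cell viability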
Description: SANGER: Inhibition of human NCI-H1792 cell growth in a cell viability assay.

Ca9-22 = type: functional, cell-based;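 also: growth inhibition of Ca9-22 cells, read out with a cell viability assay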
Description: SANGER: Inhibition of human Ca9-22 cell growth in a cell viability assay.

GCT = type: functional, cell-based;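 also: GCT cell line proliferation inhibition, read out with a cell viability assay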
Description: SANGER: Inhibition of human GCT cell growth in a cell viability assay.

HuO-3N1 = type: functional, cell-based;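 also: cell viability readout used to measure how strongly compounds suppress proliferation of human HuO-3N1 cells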
Description: SANGER: Inhibition of human HuO-3N1 cell growth in a cell viability assay.

HCC1806 = type: functional, cell-based;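 also: growth inhibition of the cancer cell line, determined with a cell viability assay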
Description: SANGER: Inhibition of human HCC1806 cell growth in a cell viability assay.

SK-MEL3 = type: functional, cell-based, SK-MEL-3;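 also: growth inhibition of human SK-MEL-3 cells, read out with a cell viability assay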
Description: SANGER: Inhibition of human SK-MEL-3 cell growth in a cell viability assay.

Ca-Ski = type: functional, cell-based;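 also: cell viability assay measuring inhibition of Ca-Ski cell growth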
Description: SANGER: Inhibition of human Ca-Ski cell growth in a cell viability assay.

YKG-1 = type: functional, cell-based;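 also: cell growth inhibition, read out with a viability assay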
Description: SANGER: Inhibition of human YKG-1 cell growth in a cell viability assay.

CA46 = type: functional, cell-based
Description: SANGER: Inhibition of human CA46 cell growth in a cell viability assay.

U2OS = type: functional, cell-based, U-2-OS
Description: SANGER: Inhibition of human U-2-OS cell growth in a cell viability assay.

SCC-25 = type: functional, cell-based
Description: SANGER: Inhibition of human SCC-25 cell growth in a cell viability assay.

KYSE-450 = type: functional, cell-based
Description: SANGER: Inhibition of human KYSE-450 cell growth in a cell viability assay.

HCC1954 = type: functional, cell-based
Description: SANGER: Inhibition of human HCC1954 cell growth in a cell viability assay.

U-698-M = type: functional, cell-based
Description: SANGER: Inhibition of human U-698-M cell growth in a cell viability assay.

CAL-120 = type: functional, cell-based
Description: SANGER: Inhibition of human CAL-120 cell growth in a cell viability assay.

Huh-7 = type: functional, cell-based
Description: SANGER: Inhibition of human HuH-7 cell growth in a cell viability assay.

BPH-1 = type: functional, cell-based
Description: SANGER: Inhibition of human BPH-1 cell growth in a cell viability assay.

HTC-C3 = type: functional, cell-based
Description: SANGER: Inhibition of human HTC-C3 cell growth in a cell viability assay.

PA-1 = type: functional, cell-based
Description: SANGER: Inhibition of human PA-1 cell growth in a cell viability assay.

C/C(O)=C(\C#N)C(=O)Nc1cc(Br)ccc1Br
IC50 (UMUC3): > 16000 nM | IC50 (RD): > 16000 nM | IC50 (SW1710): > 16000 nM | IC50 (LK-2): > 16000 nM | IC50 (NCI-H345): > 16000 nM | IC50 (RPMI-7951): > 16000 nM | IC50 (LU-165): > 16000 nM | IC50 (NCI-H2405): > 16000 nM | IC50 (JEG-3): > 16000 nM | IC50 (ABC-1): > 16000 nM | IC50 (NCI-H292): > 16000 nM | IC50 (EFO-21): > 16000 nM | IC50 (TGW): > 16000 nM | IC50 (COLO-678): > 16000 nM | IC50 (GMS-10): > 16000 nM | IC50 (SK-HEP1): > 16000 nM | IC50 (THP-1): > 16000 nM | IC50 (P31-FUJ): > 16000 nM | IC50 (SIG-M5): > 16000 nM | IC50 (SNU-C1): > 16000 nM | IC50 (DMS-153): > 16000 nM | IC50 (J82): > 16000 nM | IC50 (NCI-H2171): > 16000 nM | IC50 (U-251): > 16000 nM | IC50 (CAL-72): > 16000 nM | IC50 (SW1417): > 16000 nM | IC50 (NCI-H1963): > 16000 nM | IC50 (KYSE-410): > 16000 nM | IC50 (K052): > 16000 nM | IC50 (OE19): > 16000 nM | IC50 (ARH-77): > 16000 nM | IC50 (NCI-H2141): > 16000 nM | IC50 (HGC-27): > 16000 nM | IC50 (NCI-H727): > 16000 nM | IC50 (RCM-1): > 16000 nM | IC50 (CPC-N): > 16000 nM | IC50 (CAL-39): > 16000 nM | IC50 (HT-29): > 16000 nM | IC50 (NCI-N87): > 16000 nM | IC50 (SAS): > 16000 nM | IC50 (GAMG): > 16000 nM | IC50 (MKN-1): > 16000 nM | IC50 (KYSE-510): > 16000 nM | IC50 (HuP-T3): > 16000 nM | IC50 (C-33-A): > 16000 nM | IC50 (SNU-449): > 16000 nM | IC50 (NCI-H1792): > 16000 nM | IC50 (Ca9-22): > 16000 nM | IC50 (GCT): > 16000 nM | IC50 (HuO-3N1): > 16000 nM | IC50 (HCC1806): > 16000 nM | IC50 (SK-MEL3): > 16000 nM | IC50 (Ca-Ski): > 16000 nM | IC50 (YKG-1): > 16000 nM | IC50 (CA46): > 16000 nM | IC50 (U2OS): > 16000 nM | IC50 (SCC-25): > 16000 nM | IC50 (KYSE-450): > 16000 nM | IC50 (HCC1954): > 16000 nM | IC50 (U-698-M): > 16000 nM | IC50 (CAL-120): > 16000 nM | IC50 (Huh-7): > 16000 nM | IC50 (BPH-1): > 16000 nM | IC50 (HTC-C3): > 16000 nM | IC50 (PA-1): > 16000 nM

O=c1[nH]c2ccccc2n1C1CCN(Cc2ccc(-c3nc4cc5[nH]cnc5cc4nc3-c3ccccc3)cc2)CC1
IC50 (UMUC3): > 2560 nM | IC50 (RD): > 2560 nM | IC50 (SW1710): 1390 nM | IC50 (LK-2): > 2560 nM | IC50 (NCI-H345): > 2560 nM | IC50 (RPMI-7951): > 2560 nM | IC50 (LU-165): > 2560 nM | IC50 (NCI-H2405): > 2560 nM | IC50 (JEG-3): > 2560 nM | IC50 (ABC-1): > 2560 nM | IC50 (NCI-H292): > 2560 nM | IC50 (EFO-21): > 2560 nM | IC50 (TGW): > 2560 nM | IC50 (COLO-678): > 2560 nM | IC50 (GMS-10): > 2560 nM | IC50 (SK-HEP1): > 2560 nM | IC50 (THP-1): > 2560 nM | IC50 (P31-FUJ): > 2560 nM | IC50 (SIG-M5): > 2560 nM | IC50 (SNU-C1): 2010 nM | IC50 (DMS-153): > 2560 nM | IC50 (J82): > 2560 nM | IC50 (NCI-H2171): > 2560 nM | IC50 (U-251): > 2560 nM | IC50 (CAL-72): > 2560 nM | IC50 (SW1417): > 2560 nM | IC50 (NCI-H1963): > 2560 nM | IC50 (KYSE-410): > 2560 nM | IC50 (K052): > 2560 nM | IC50 (OE19): > 2560 nM | IC50 (ARH-77): > 2560 nM | IC50 (NCI-H2141): > 2560 nM | IC50 (HGC-27): 150 nM | IC50 (NCI-H727): > 2560 nM | IC50 (RCM-1): > 2560 nM | IC50 (CPC-N): > 2560 nM | IC50 (CAL-39): > 2560 nM | IC50 (HT-29): 2430 nM | IC50 (NCI-N87): > 2560 nM | IC50 (SAS): > 2560 nM | IC50 (GAMG): > 2560 nM | IC50 (MKN-1): > 2560 nM | IC50 (KYSE-510): 2210 nM | IC50 (HuP-T3): > 2560 nM | IC50 (C-33-A): > 2560 nM | IC50 (SNU-449): > 2560 nM | IC50 (NCI-H1792): > 2560 nM | IC50 (Ca9-22): > 2560 nM | IC50 (GCT): > 2560 nM | IC50 (HuO-3N1): > 2560 nM | IC50 (HCC1806): > 2560 nM | IC50 (SK-MEL3): > 2560 nM | IC50 (Ca-Ski): > 2560 nM | IC50 (YKG-1): 1020 nM | IC50 (CA46): > 2560 nM | IC50 (U2OS): > 2560 nM | IC50 (SCC-25): > 2560 nM | IC50 (KYSE-450): > 2560 nM | IC50 (HCC1954): > 2560 nM | IC50 (U-698-M): > 2560 nM | IC50 (CAL-120): > 2560 nM | IC50 (Huh-7): > 2560 nM | IC50 (BPH-1): > 2560 nM | IC50 (HTC-C3): > 2560 nM | IC50 (PA-1): > 2560 nM
